Reference: PMC8115619, “Generation of a chemical genetic model for JAK3” (Scientific Reports, 2021)
Entries after “also recorded” stand apart in the source; their conditions may differ.

Tests used:
[1] = system: GM-CSF induced STAT5 phosphorylation in BMDMs; test: GM-CSF induced STAT5 phosphorylation in macrophages; type: cell-based, mouse; details: wild type BMDMs, 10 μM inhibitor 2 h, 10 ng/ml GM-CSF
Method: (A) BMDMs were isolated from wild type mice. Cells were incubated with the indicated inhibitors in μM for 2 h before stimulation with 10 ng/ml IL-4 for 30 min. The levels of phosphorylated STAT6 were then determined by immunoblotting. (B) As (A) except cells were stimulated 10 ng/ml GM-CSF and the levels of phosphorylated STAT5 determined. (C) As (A) except cells were stimulated 10 ng/ml IL-10 and the levels of phosphorylated STAT3 determined. (D) As (A) except cells were stimulated 10 ng/ml IFNβ and the levels of phosphorylated STAT1 determined. For A–D, levels of ERK1/2 were determined as a loading control.
Bone marrow derived macrophages (BMDMs) were cultured as described. Briefly, bone marrow was flushed in PBS from the femurs and tibias of mice. […]
Cells were lysed directly into SDS sample buffer and aliquots run on 10% polyacrylamide gels using standard methods. Proteins were transferred onto nitrocellulose membranes, and specific proteins were detected by immunoblotting. […] Bands were detected using Clarity ECL reagents from BioRad and imaged on a Licor Odyssey Fc system. Quantification was carried out using Licor Image Studio software. After correction for the ERK1/2 levels to account for loading differences, percentage inhibition was calculated relative to the IL-4 stimulated condition. IC50 values were calculated using the same methods as for the in vitro IC50 values.

[2] = system: IL-4 induced STAT6 phosphorylation in JAK3 Cys905Ser knockin BMDMs; test: Inhibitor washout, IL-4 induced STAT6 phosphorylation, JAK3 Cys905Ser knockin BMDMs; type: cell-based, mouse; details: inhibitor 2 h, washed 3 times in PBS; 10 μM TL6-144, 100 μM PF-06651600
Method: To test this, cells were treated with a high concentration of inhibitor for 2 h before being washed 3 times in PBS and then incubated in media without inhibitor for 0.5 to 24 h. […] To confirm this was not the case, similar experiments were done in JAK3 Cys905Ser knockin cells.
BMDMs were isolated from wild type and JAK3 Cys905Ser knockin mice. […] The macrophages were then either stimulated with 10 ng/ml IL-4 for 30 min or washed 3 times in PBS and then incubated in media without inhibitor for the indicated times. The cells were then stimulated with IL-4 for 30 min and STAT6 phosphorylation determined by immunoblotting using levels of ERK1/2 as a loading control.
Briefly, bone marrow was flushed in PBS from the femurs and tibias of mice. Cells were cultured on bacterial grade plastic for 7 days at 37 °C, 5% CO2. […]
Cells were lysed directly into SDS sample buffer and aliquots run on 10% polyacrylamide gels using standard methods[51]. Proteins were transferred onto nitrocellulose membranes, and specific proteins were detected by immunoblotting. […] Bands were detected using Clarity ECL reagents from BioRad and imaged on a Licor Odyssey Fc system. Quantification was carried out using Licor Image Studio software. After correction for the ERK1/2 levels to account for loading differences, percentage inhibition was calculated relative to the IL-4 stimulated condition.

DYRK2 = DYRK2 (Homo sapiens, UniProt Q92630); test: Selectivity screen DYRK2; type: biochemical; details: 1 µM inhibitor, mean
DYRK2, sequence (Q92630 whole entry): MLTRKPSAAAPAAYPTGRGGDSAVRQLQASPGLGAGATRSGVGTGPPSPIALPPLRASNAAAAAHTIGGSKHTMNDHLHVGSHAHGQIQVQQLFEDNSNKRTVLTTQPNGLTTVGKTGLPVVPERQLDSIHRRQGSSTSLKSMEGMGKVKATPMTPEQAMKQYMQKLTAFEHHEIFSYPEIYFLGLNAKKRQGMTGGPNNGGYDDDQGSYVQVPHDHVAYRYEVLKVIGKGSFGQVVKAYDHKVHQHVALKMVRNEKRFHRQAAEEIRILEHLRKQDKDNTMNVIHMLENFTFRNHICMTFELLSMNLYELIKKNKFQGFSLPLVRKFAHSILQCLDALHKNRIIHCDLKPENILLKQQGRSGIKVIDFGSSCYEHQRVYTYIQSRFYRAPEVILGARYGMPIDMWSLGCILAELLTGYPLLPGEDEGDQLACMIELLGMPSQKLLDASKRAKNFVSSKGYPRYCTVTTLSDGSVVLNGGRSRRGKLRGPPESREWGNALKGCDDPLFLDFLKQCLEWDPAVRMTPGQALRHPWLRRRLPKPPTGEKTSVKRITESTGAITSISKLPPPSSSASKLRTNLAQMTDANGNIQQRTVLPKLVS
Method: (§1) For the in vitro kinase assay, JAK3 (5–20 mU diluted in 50 mM Tris pH 7.5, 0.1 mM EGTA, 0.05% β-mercaptoethanol, 1 mg/ml BSA) was assayed against PDKtide ([…]) in a final volume of 25.5 µl containing 50 mM Tris pH 7.5, 0.1 mM EGTA, 0.05% β-mercaptoethanol, 100 µM substrate peptide, 10 mM magnesium acetate and 0.02 mM [33P-γ-ATP] (50–1000 cpm/pmole) and incubated for 30 min at room temperature. Assays were started by the addition of the ATP and stopped by addition of 5 µl of 0.5 M (3%) orthophosphoric acid and then harvested onto P81 Unifilter plates with a wash buffer of 50 mM orthophosphoric acid. To determine the Km for ATP, assays were run using 1, 5, 10, 20, 50, 100, 200, 400, 500 μM ATP and Km derived by non-linear regression fitting to the Michaelis–Menten equation v = Vmax[S]/(Km + [S]). IC50 values for inhibitors via non-linear regression using a parameter model: Y = Bottom + (Top–Bottom)/(1 + (IC50/X)^HillSlope). Non-linear regression was carried out in Prism (version 8). In vitro selectivity screen was carried out as described previously.

PKD1 = PKD1 (Homo sapiens, UniProt Q15139); test: Selectivity screen PKD1; type: biochemical; details: 1 µM inhibitor, mean
Method: as §1

MKK2 = MKK2 (Homo sapiens, UniProt P36507); test: Selectivity screen MKK2; type: biochemical; details: 1 µM inhibitor, mean
MKK2, sequence (P36507 whole entry): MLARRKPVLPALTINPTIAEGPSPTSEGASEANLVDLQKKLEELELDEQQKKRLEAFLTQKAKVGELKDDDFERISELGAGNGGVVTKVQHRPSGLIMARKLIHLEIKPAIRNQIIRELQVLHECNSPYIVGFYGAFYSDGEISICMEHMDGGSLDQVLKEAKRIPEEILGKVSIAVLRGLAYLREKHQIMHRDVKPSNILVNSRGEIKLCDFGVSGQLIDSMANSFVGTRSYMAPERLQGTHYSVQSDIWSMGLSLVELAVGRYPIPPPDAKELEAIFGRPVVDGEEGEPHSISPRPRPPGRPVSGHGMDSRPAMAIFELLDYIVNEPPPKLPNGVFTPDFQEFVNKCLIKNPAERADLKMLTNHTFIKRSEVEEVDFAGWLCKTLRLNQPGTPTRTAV
Method: as §1

TTBK1 = TTBK1 (Homo sapiens, UniProt Q5TCY1); test: Selectivity screen TTBK1; type: biochemical; details: 1 µM inhibitor, mean
Method: as §1

MARK4 = MARK4 (Homo sapiens, UniProt Q96L34); test: Selectivity screen MARK4; type: biochemical; details: 1 µM inhibitor, mean
Method: as §1

MNK2 = MNK2 (Homo sapiens, UniProt Q9HBH9); test: Selectivity screen MNK2; type: biochemical; details: 1 µM inhibitor, mean
Method: as §1

CAMK1 = CAMK1 (Homo sapiens, UniProt Q14012); test: Selectivity screen CAMK1; type: biochemical; details: 1 µM inhibitor, mean
CAMK1, sequence (Q14012 whole entry): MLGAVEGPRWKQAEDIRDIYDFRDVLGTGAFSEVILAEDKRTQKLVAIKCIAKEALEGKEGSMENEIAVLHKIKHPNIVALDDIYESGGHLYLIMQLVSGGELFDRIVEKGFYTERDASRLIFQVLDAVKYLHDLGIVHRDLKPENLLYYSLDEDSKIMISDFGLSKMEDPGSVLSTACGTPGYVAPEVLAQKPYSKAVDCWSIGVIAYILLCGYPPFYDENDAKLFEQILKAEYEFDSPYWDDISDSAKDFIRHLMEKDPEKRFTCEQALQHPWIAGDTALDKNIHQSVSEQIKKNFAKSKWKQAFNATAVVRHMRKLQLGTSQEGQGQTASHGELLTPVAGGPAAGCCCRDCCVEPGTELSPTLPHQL
Method: as §1

CK1γ2 = CK1γ2 (Homo sapiens, UniProt P78368); test: Selectivity screen CK1γ2; type: biochemical; details: 1 µM inhibitor, mean
Method: as §1

CHK1 = CHK1 (Homo sapiens, UniProt O14757); test: Selectivity screen CHK1; type: biochemical; details: 1 µM inhibitor, mean
Method: as §1

IGF-1R = IGF-1R (Homo sapiens, UniProt P08069); test: Selectivity screen IGF-1R; type: biochemical; details: 1 µM inhibitor, mean
Method: as §1

PKCz = PKCz (Homo sapiens, UniProt Q05513); test: Selectivity screen PKCz; type: biochemical; details: 1 µM inhibitor, mean
Method: as §1

RSK2 = RSK2 (Homo sapiens, UniProt P51812); test: Selectivity screen RSK2; type: biochemical; details: 1 µM inhibitor, mean
Method: as §1

CDK2-Cyclin A = CDK2-Cyclin A (Homo sapiens, UniProt P24941); test: Selectivity screen CDK2-Cyclin A; type: biochemical; details: 1 µM inhibitor, mean
SYK = SYK (Homo sapiens, UniProt P43405); test: Selectivity screen SYK; type: biochemical; details: 1 µM inhibitor, mean
Method: as §1

GSK3b = GSK3b (Homo sapiens, UniProt P49841); test: Selectivity screen GSK3b; type: biochemical; details: 1 µM inhibitor, mean
GSK3b, sequence (P49841 whole entry): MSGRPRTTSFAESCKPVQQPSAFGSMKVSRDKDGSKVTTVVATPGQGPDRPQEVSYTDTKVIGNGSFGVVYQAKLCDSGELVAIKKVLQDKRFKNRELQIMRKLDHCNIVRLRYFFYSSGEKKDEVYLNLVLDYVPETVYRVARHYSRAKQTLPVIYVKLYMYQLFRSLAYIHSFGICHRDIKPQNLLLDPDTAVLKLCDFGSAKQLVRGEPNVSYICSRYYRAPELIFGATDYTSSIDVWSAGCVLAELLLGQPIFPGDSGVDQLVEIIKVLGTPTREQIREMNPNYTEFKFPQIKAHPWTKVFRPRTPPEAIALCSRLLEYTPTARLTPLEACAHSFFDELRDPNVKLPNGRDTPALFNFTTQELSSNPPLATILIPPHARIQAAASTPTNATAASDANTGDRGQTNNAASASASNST
Method: as §1

BRK = BRK (Homo sapiens, UniProt Q13882); test: Selectivity screen BRK; type: biochemical; details: 1 µM inhibitor, mean
WNK1 = WNK1 (Homo sapiens, UniProt Q9H4A3); test: Selectivity screen WNK1; type: biochemical; details: 1 µM inhibitor, mean
WNK1, sequence (Q9H4A3 whole entry): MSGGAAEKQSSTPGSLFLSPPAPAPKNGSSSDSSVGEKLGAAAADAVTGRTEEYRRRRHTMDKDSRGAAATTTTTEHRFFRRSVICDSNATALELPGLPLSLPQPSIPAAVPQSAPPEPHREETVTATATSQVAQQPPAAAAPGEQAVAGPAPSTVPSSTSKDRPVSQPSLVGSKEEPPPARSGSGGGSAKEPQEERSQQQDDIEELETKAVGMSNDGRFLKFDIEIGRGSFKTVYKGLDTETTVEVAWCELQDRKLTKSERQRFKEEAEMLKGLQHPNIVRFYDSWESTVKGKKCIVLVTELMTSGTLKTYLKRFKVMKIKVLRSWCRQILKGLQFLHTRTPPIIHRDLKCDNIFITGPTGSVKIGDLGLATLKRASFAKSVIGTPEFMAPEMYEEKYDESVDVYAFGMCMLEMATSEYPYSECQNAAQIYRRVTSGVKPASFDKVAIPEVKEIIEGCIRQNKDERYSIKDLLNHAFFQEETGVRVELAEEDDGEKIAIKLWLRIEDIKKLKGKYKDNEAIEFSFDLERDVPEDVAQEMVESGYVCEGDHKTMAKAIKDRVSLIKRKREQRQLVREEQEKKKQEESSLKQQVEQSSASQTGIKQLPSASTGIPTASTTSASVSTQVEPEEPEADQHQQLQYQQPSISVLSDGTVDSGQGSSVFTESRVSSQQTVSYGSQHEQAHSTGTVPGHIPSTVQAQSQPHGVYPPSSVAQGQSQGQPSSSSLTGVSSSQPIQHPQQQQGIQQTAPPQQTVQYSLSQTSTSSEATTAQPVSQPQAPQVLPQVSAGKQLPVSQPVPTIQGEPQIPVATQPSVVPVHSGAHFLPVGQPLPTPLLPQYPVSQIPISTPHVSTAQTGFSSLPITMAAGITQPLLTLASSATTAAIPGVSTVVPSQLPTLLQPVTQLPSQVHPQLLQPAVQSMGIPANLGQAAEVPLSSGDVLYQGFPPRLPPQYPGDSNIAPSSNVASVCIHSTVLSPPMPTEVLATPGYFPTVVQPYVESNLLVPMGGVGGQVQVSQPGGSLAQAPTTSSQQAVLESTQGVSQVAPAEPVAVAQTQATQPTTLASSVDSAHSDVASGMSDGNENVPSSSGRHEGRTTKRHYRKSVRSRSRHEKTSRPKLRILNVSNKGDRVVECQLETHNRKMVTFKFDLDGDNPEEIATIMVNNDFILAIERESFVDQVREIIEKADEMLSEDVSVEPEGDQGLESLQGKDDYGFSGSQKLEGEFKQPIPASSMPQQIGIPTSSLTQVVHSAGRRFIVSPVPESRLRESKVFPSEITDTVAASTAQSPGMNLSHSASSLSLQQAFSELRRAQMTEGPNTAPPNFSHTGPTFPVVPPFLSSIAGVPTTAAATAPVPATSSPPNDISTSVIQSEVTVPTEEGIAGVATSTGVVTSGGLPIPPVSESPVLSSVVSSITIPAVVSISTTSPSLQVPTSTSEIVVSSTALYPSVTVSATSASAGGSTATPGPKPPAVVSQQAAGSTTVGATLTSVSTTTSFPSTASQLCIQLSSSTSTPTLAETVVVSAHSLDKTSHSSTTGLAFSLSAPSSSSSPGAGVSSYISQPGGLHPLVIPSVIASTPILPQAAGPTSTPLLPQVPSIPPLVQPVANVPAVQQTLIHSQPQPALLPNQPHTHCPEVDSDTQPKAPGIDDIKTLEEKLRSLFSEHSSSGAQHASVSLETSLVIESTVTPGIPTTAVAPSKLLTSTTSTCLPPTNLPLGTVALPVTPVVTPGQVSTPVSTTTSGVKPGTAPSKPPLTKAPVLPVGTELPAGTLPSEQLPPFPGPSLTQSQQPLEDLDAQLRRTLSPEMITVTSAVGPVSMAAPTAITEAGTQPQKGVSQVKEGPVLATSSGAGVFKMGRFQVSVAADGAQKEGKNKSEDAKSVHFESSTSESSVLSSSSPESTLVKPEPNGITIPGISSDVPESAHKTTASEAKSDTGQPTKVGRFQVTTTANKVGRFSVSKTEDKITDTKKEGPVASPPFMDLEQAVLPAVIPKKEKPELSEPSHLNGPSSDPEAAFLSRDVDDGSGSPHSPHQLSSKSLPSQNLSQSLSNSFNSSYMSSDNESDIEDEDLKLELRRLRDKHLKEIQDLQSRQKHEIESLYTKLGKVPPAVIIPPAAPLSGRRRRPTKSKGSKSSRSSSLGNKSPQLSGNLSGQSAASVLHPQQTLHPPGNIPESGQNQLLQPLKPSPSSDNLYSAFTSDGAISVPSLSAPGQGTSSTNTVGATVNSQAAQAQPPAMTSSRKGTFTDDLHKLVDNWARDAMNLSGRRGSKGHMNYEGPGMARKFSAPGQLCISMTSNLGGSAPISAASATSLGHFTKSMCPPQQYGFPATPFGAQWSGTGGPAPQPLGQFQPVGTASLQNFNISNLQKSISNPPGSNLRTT
Method: as §1

NEK2a = NEK2a (Homo sapiens, UniProt P51955); test: Selectivity screen NEK2a; type: biochemical; details: 1 µM inhibitor, mean
NEK2a, sequence (P51955 whole entry): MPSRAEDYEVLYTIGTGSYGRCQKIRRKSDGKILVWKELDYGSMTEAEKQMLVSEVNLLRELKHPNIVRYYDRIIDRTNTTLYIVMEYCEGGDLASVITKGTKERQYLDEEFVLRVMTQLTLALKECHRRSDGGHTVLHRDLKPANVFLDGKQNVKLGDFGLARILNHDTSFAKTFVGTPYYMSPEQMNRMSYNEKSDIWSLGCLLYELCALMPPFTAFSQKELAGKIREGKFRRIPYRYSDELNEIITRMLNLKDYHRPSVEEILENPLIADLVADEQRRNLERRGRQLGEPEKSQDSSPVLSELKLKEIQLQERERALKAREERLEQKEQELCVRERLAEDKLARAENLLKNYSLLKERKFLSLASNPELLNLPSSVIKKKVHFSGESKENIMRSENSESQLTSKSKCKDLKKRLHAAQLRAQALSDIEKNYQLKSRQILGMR
Method: as §1

ZAP70 = ZAP70 (Homo sapiens, UniProt P43403); test: Selectivity screen ZAP70; type: biochemical; details: 1 µM inhibitor, mean
Method: as §1

TAK1 = TAK1 (Homo sapiens, UniProt O43318); test: Selectivity screen TAK1; type: biochemical; details: 1 µM inhibitor, mean
TAK1, sequence (O43318 1-303 limits assumed): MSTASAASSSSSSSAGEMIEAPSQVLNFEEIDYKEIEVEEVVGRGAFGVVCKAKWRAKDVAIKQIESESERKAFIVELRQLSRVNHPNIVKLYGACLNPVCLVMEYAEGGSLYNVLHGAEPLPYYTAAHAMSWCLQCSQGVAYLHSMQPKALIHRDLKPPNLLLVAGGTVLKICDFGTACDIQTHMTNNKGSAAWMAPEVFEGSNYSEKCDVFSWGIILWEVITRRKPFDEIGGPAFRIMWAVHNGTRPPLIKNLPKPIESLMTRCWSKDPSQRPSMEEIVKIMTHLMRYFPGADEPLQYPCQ
Method: as §1

Row | SMILES | inhibition of GM-CSF induced STAT5 phosphorylation [1] | inhibition of IL-4 induced STAT6 phosphorylation after inhibitor washout, JAK3 Cys905Ser knockin BMDMs [2] | activity remaining in the presence of the inhibitor: DYRK2 (DYRK2) | activity remaining in the presence of the inhibitor: PKD1 (PKD1) | activity remaining in the presence of the inhibitor: MKK2 (MKK2) | activity remaining in the presence of the inhibitor: TTBK1 (TTBK1) | activity remaining in the presence of the inhibitor: MARK4 (MARK4) | activity remaining in the presence of the inhibitor: MNK2 (MNK2) | activity remaining in the presence of the inhibitor: CAMK1 (CAMK1) | activity remaining in the presence of the inhibitor: CK1γ2 (CK1γ2) | activity remaining in the presence of the inhibitor: CHK1 (CHK1) | activity remaining in the presence of the inhibitor: IGF-1R (IGF-1R) | activity remaining in the presence of the inhibitor: PKCz (PKCz) | activity remaining in the presence of the inhibitor: RSK2 (RSK2) | activity remaining in the presence of the inhibitor: CDK2-Cyclin A (CDK2-Cyclin A) | activity remaining in the presence of the inhibitor: SYK (SYK) | activity remaining in the presence of the inhibitor: GSK3b (GSK3b) | activity remaining in the presence of the inhibitor: BRK (BRK) | activity remaining in the presence of the inhibitor: WNK1 (WNK1) | activity remaining in the presence of the inhibitor: NEK2a (NEK2a) | also measured
1 | C=CC(=O)N1C[C@H](Nc2ncnc3[nH]ccc23)CC[C@@H]1C [PF-06651600, 1-((2S,5R)-5-((7H-Pyrrolo[2,3-d]pyrimidin-4-yl)amino)-2-methylpiperidin-1-yl)prop-2-en-1-one, reference compound] | Neither TL8-52 or PF-06651600 inhibited; also recorded: did not block | not retained at any time post washout |  |  |  |  |  |  |  |  |  |  |  |  |  |  |  |  |  |  | 
2 | C=CC(=O)Nc1cccc(CNc2nc(Nc3ccc(N4CCN(C)CC4)cc3OC)ncc2Cl)c1 [TL6-144] |  | complete loss of inhibition | 92 | 46 | 93 | 80 | 76 | 70 | 68 | 82 | 93 | 5 | 88 | 73 | 87 | 107 | 87 | 94 | 81 | 96 | activity remaining in the presence of the inhibitor: ZAP70 (ZAP70): 86; activity remaining in the presence of the inhibitor: TAK1 (TAK1): 77
3 | C=CC(=O)Nc1cccc(CNc2nc(Nc3ccc(N4CCOCC4)cc3)ncc2Cl)c1 [TL8-52] | Neither TL8-52 or PF-06651600 inhibited |  | 87 | 86 | 63 | 100 | 28 | 66 | 97 | 96 | 91 | 24 | 98 | 53 | 84 | 63 | 118 | 94 | 112 | 135 | activity remaining in the presence of the inhibitor: ZAP70 (ZAP70): 77; activity remaining in the presence of the inhibitor: TAK1 (TAK1): 39
